Experimental data from patent US10472341B2, “Bicyclic tetrahydrothiazepine derivatives useful for the treatment of neoplastic and/or infectious diseases” (APEIRON BIOLOGICS AG, priority 2015, dated 2019).
Where two headings read alike, the source gives them in different places.

Tests used:
[1] = system: aCD3/aCD28-stimulated human PBMCs; assay: Cytokine production in aCD3/aCD28 stimulated human PBMCs; assay type: cell-based; conditions: PBMC, 18 h
Method in brief: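 Ficoll-isolated human PBMCs at 1e6 cells/mL in X-Vivo15, stimulated with soluble anti-CD3/CD28 (OKT3 and 28.2, 1 μg/mL each) plus compound for 18 h at 37° C. Supernatant cytokines quantified by MSD or HTRF.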

[2] = system: non-stimulated PBMCs; assay: Non-stimulated PBMCs: cytokine secretion and signs of T-cell activation; assay type: cell-based, human
Source text: This is an important finding for compounds that shall selectively act on T cells which have been activated by presence of antigen from pathogens or tumors, but shall not lead to an unwanted general activation of all T cells of a patient.

[3] = system: OT-II cells; assay: OT-II transfer model, oral administration: antigen-specific T cell proliferation and CD69; assay type: in vivo, mouse; conditions: LPS & OVA; 10 mg/kg dosed orally
Procedure: (§1) • Single cell suspension of splenocytes was prepared from the spleen by rinsing cells through a sterile 70 μm filter with PBS • Cells were collected by centrifugation in an 15 ml tube, the cell pellet was resuspended in 1 ml of Erylyse buffer and incubated at room temperature for 5 minutes, tubes were filled up with PBS and cells were washed twice • Cells were counted and resuspended in the desired buffer volume for MACS-enrichment or flow cytometric analysis Isolation of CD4 T Cells from OT-II Transgenic Mice • Splenocytes were resuspended in MACS buffer ([…] MACS-buffer/10^7 cells) • CD4 T cells were isolated using the CD4 T cell isolation kit (Miltenyi) with LS-columns following manufacturer's recommendations CFSE-Labeling of T Cells • Cells were resuspended in PBS with 0.1% BSA at 1×10^7 cells/ml and CFSE-solution was added to final concentration of 2.5 μM CFSE • Incubated for 10 min at 37° C., swung each 2 min • Same volume of FCS added and incubated for 5 min at room temperature • Cells were washed twice with RMPI-10% FCS medium • Cells were counted and resuspended in PBS or medium at desired concentration OT-II Transfer • Day 0: OT-II cells were transferred in PBS (3*10^6. Cells in 100 μl PBS) by retro-orbital injection • Day 1: WT mice got OVA vaccinated (subcut. flank, 10 μg LPS, 2 μg OVA per animal) • 2 & 4 h later compounds were administrated; for oral dosing compound was used as suspension (0.5% methylcellulose in water), for i.v. dosing compound was solubilized in DMSO and diluted with PBS • Day 2: compounds were administrated twice in the morning (with 2 h time interval) • Day 3: Mice were sacrificed & splenocytes were isolated • T cell proliferation & phenotype was determined by flow cytometry • Flow cytometry-Staining (all Abs purchased from eBioscience and used as recommended by the manufacturer): B220-eF450, CD4-PE, CD25PerCPCy5.5, CD69-PC7, TCRVa2-APC, CD8-AF700, CD3-eF780; CFSE; 7-AAD • Acquisition on Beckman-Coulter Gallios, Analysis using Kaluza Software OT-I Transfer to Mice with B16-F10-OVA Tumors • Day 0: 100000 B16-F10-OVA tumor cells were inoculated subcutaneously at the flank of WT-mice • Day 7: OT-I cells were transferred in PBS (3*10^6. […]

[4] = system: CD4 T cells, CD8 T cells and NK cells of B16-F10-OVA tumor bearing mice; assay: Immune modulation of B16-F10-OVA tumor bearing mice: activation markers in tumor draining lymph nodes (flow cytometry); assay type: in vivo, mouse; conditions: day 15
Procedure: as §1

[5] = system: B16-F10-OVA tumors; assay: Immune modulation of B16-F10-OVA tumor bearing mice: tumor infiltration by immune cells (quantitative RT-PCR); assay type: in vivo, mouse; conditions: tumor mRNA
Procedure: as §1

CC(=O)NCCCCCOc1ccc(CNC(=O)c2ccc3c(c2)N(Cc2ccc(Cl)cc2)C(=O)[C@@H](N)CS3(=O)=O)cc1.Cl [Example 78, (3R)-3-amino-5-[(4-chlorophenyl)methyl]-N-({4-[(5-acetamidopentyl)oxy]phenyl}-methyl)-1,1,4-trioxo-2,3,4,5-tetrahydro-1λ^6,5-benzothiazepine-7-carboxamide hydrochloride]
EC50 ([1]; enhancement of IFN-γ production, read-out: Activity Class IFN-γ): < 1580 nM | EC50 ([1]; enhancement of IL-2 production, read-out: Activity Class IL-2): < 1580 nM | cytokine secretion or other signs of T-cell activation [2]: did not enhance cytokine secretion or other signs of T-cell activation

N[C@H]1CS(=O)(=O)c2cc(F)c(C(=O)NC3CC3(F)F)cc2N(Cc2ccc(Cl)cc2)C1=O (stereo partly shown) [compound ex. 1]
CD69+ cells, B cells of recipient animal [3]: 2.10 % gated | CD69+ cells, CD8 T cells of recipient animal [3]: 3.48 % gated | CD69+ cells, WT CD4 T cells of recipient animal [3]: 7.00 % gated | CD69+ cells, transferred OT-II cells [3]: 46.92 % gated

N[C@H]1CS(=O)(=O)c2cc(F)c(C(=O)NC3CC3(F)F)cc2N(Cc2ccc(Cl)cc2)C1=O (stereo partly shown) [Compound Ex. 1]
Average CD25+ cells ([4]; CD4 T cells, 10 mg/kg orally): 15.63 % gated | Average CD69+ cells ([4]; CD4 T cells, 10 mg/kg orally): 13.34 % gated | Average CD107a+ cells ([4]; CD4 T cells, 10 mg/kg orally): 5.03 % gated | Average PD1+ cells ([4]; CD4 T cells, 10 mg/kg orally): 10.73 % gated | Average CD25+ cells ([4]; CD4 T cells, 30 mg/kg orally): 15.91 % gated | Average CD69+ cells ([4]; CD4 T cells, 30 mg/kg orally): 14.25 % gated | Average CD107a+ cells ([4]; CD4 T cells, 30 mg/kg orally): 5.43 % gated | Average PD1+ cells ([4]; CD4 T cells, 30 mg/kg orally): 10.36 % gated | Average CD25+ cells ([4]; CD8 T cells, 10 mg/kg orally): 1.95 % gated | Average CD69+ cells ([4]; CD8 T cells, 10 mg/kg orally): 5.25 % gated | Average CD107a+ cells ([4]; CD8 T cells, 10 mg/kg orally): 2.00 % gated | Average PD1+ cells ([4]; CD8 T cells, 10 mg/kg orally): 3.12 % gated | Average CD25+ cells ([4]; CD8 T cells, 30 mg/kg orally): 2.88 % gated | Average CD69+ cells ([4]; CD8 T cells, 30 mg/kg orally): 5.91 % gated | Average CD107a+ cells ([4]; CD8 T cells, 30 mg/kg orally): 4.24 % gated | Average PD1+ cells ([4]; CD8 T cells, 30 mg/kg orally): 6.71 % gated | Average CD69+ cells ([4]; NK cells, 10 mg/kg orally): 34.43 % gated | Average CD107a+ cells ([4]; NK cells, 10 mg/kg orally): 12.85 % gated | Average PD1+ cells ([4]; NK cells, 10 mg/kg orally): 19.91 % gated | Average CD69+ cells ([4]; NK cells, 30 mg/kg orally): 32.55 % gated | Average CD107a+ cells ([4]; NK cells, 30 mg/kg orally): 10.98 % gated | Average PD1+ cells ([4]; NK cells, 30 mg/kg orally): 13.61 % gated | Average CD4 expression ([5]; 10 mg/kg orally): 7.07 EF1a * 10^4 | Average CD8 expression ([5]; 10 mg/kg orally): 6.28 EF1a * 10^4 | Average IFN-g expression ([5]; 10 mg/kg orally): 0.75 EF1a * 10^4 | Average IL-2 expression ([5]; 10 mg/kg orally): 0.043 EF1a * 10^4 | Average IL-12 expression ([5]; 10 mg/kg orally): 0.074 EF1a * 10^4 | Average IL-23 expression ([5]; 10 mg/kg orally): 0.480 EF1a * 10^4 | Average Ratio Eomes/Foxp3 ([5]; 10 mg/kg orally): 0.66 | Average Ratio Rorgc/Foxp3 ([5]; 10 mg/kg orally): 5.38 | Average Ratio T-bet/Foxp3 ([5]; 10 mg/kg orally): 8.35 | Average TNF-a expression ([5]; 10 mg/kg orally): 9.96 EF1a * 10^4 | Average CD4 expression ([5]; 30 mg/kg orally): 9.65 EF1a * 10^4 | Average CD8 expression ([5]; 30 mg/kg orally): 10.72 EF1a * 10^4 | Average IFN-g expression ([5]; 30 mg/kg orally): 1.23 EF1a * 10^4 | Average IL-2 expression ([5]; 30 mg/kg orally): 0.085 EF1a * 10^4 | Average IL-12 expression ([5]; 30 mg/kg orally): 0.120 EF1a * 10^4 | Average IL-23 expression ([5]; 30 mg/kg orally): 0.611 EF1a * 10^4 | Average Ratio Eomes/Foxp3 ([5]; 30 mg/kg orally): 0.64 | Average Ratio Rorgc/Foxp3 ([5]; 30 mg/kg orally): 6.17 | Average Ratio T-bet/Foxp3 ([5]; 30 mg/kg orally): 9.59 | Average TNF-a expression ([5]; 30 mg/kg orally): 14.97 EF1a * 10^4
